Read-outs that look alike come from different tables or passages of the source.

Data set [1] addresses T1, PfFNT (Plasmodium falciparum, UniProt O77389).
T1 construct: expressed in transfected cells; membranes solubilized
T1 sequence (O77389 1-309): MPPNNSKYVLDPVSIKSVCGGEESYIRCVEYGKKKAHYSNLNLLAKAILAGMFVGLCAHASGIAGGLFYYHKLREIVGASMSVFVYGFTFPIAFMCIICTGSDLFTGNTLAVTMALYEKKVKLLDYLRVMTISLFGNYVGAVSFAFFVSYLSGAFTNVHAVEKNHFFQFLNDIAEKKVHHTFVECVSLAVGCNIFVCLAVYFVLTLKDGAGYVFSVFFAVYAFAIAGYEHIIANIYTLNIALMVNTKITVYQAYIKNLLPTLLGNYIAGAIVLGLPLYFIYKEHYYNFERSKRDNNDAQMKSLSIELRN
The data set is described as follows: Fluorescence cross-correlation spectroscopy (FCCS) competition binding to solubilized PfFNT-GFP. A digest of the protocol: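 Solubilized membranes from stably transfected cells expressing C-terminally GFP-tagged PfFNT were competed against BH267.meta-DY647 tracer, with competitor titrated from 100 pM to 100 μM. IC50 came from the dual-labeled complex concentration, recorded 10 × 5 s with 488/633 nm excitation; Ki calculated by Cheng-Prusoff from the tracer KD.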

Data set [2] concerns the target T1, PfFNT. As to the kind of experiment: Yeast-based PfFNT 14C-lactate transport assay. It counts as cell-based. The protocol: Lactate transport functionality of PfFNT was assayed as described before.[4] Briefly, Saccharomyces cerevisiae W303-1A jen1Δady2Δcells[32] (MATa, can1-100, ade2-loc, his3-11-15, leu2-3,-112, trp1-1-1, ura3-1, jen1::kanMX4, ady2::hphMX4) kindly provided by M. Casal expressing PfFNT was grown at 29 °C to an OD600 of 1 (±0.1). Harvested cells were resuspended to an OD600 of 50 (±5) in 50 mM HEPES/Tris, pH 6.8 (±0.1). 10–15 min prior to the assay, 80 μL of yeast suspension were added to 1 μL of DMSO with or without inhibitor in a 1.5 mL reaction tube at 18 °C. Twenty μL of L-lactate solution spiked with [1-^14C]-L-lactate (Hartmann Analytic) was added yielding a 1 mM inward gradient with 0.04 μCi label. Transport was stopped after 30 s by abrupt dilution with 1 mL of ice-cold water, vacuum filtration via GF/C filter membranes (Whatman), and washing with 7 mL of ice-cold water. The radio label was analyzed by liquid scintillation counting in 3 mL of scintillation cocktail (Rotiszint eco plus, Carl Roth) using a Packard TriCarb 2900 TR (PerkinElmer Inc.).
Transport assays in yeast were done in triplicate biological replicates. At least nine technical replicates were measured around the IC50 value, concentrations with no or full inhibition were determined from at least three technical replicates. EC50-values were determined from 2 to 4 biological replicates. IC50 and EC50 curves were fitted by the Hill equation with variable slope (Graph Pad Prism 10). Error bars denote ± SEM (for n ≥ 3) or ± range (for n = 2). For the EC50-value of 7a the error of the fitting of the curve is given. Cytotoxicity was determined from biological triplicates; error is shown as SEM.

The subject of data set [3] is Plasmodium falciparum 3D7 parasites. The data set is described as follows: P. falciparum 3D7 culture growth assay in erythrocytes (in vitro activity). Type of data set: cell-based. The following applies: Plasmodium falciparum, 3D7, Erythrocyte; for activity at 0.05 µM / activity at 0.1 µM / activity at 0.2 µM / EC50: 48 h; for activity at 0.05 µM: read-out: % Growth at 50 nM (in vitro, 3D7); for activity at 0.1 µM: read-out: % Growth at 100 nM (in vitro, 3D7); for activity at 0.2 µM: read-out: % Growth at 200 nM (in vitro, 3D7); for EC50: read-out: EC50 (in vitro, 3D7). A digest of the protocol: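 Parasitemia of P. falciparum 3D7 in erythrocyte culture was measured by flow cytometry and growth expressed as % of untreated control.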

The nature of data set [4]: Lipophilicity log D7.4 by HPLC (OECD guideline). It counts as physicochemical. To be noted: RP-8 HPLC column (ZORBAX Eclipse XDB-C8), pH 7.4. The procedure: Lipophilicity was determined according to the OECD Guidelines for the Testing of Chemicals no. […]. Briefly, the test compounds plus 9 standards (4-acetylpyridine, acetanilide, acetophenone, methyl benzoate, ethyl benzoate, benzophenone, phenyl benzoate, diphenyl ether, triphenylamine) were separated by HPLC with UV detection at 220 nm (Waters HPLC 1525 with tunable absorbance detector 486) using an RP-8 column (Agilent Technologies ZORBAX Eclipse XDB-C8 4.6 × 150 mm, 5 μm) at 20 °C. Eluents A (20 mM ammonium formate, pH 7.4) and B (methanol) were used to generate a gradient profile of 80% A–100% B (0–35 min), 100% B (35–37 min), 100% B–80% A (37–42 min), and 80% A (42–55 min) at a flow rate of 0.8 mL min^–1. The dead time was determined via the injection peak caused by the solvent. The log D7.4 values were calculated by correlating the capacity factors with the known values of the standards via polynomial fitting.

Regarding `CCCNc1ccc(C(=O)/C=C(\O)C(F)(F)C(F)(F)F)cn1` [7e, 4,4,5,5,5-Pentafluoro-3-hydroxy-1-(6-(propylamino)pyridin-3-yl)pent-2-en-1-one], affinity at PfFNT [1] was put at a Ki of 22 ± 8 nM. Further, at PfFNT [2] (14C-lactate transport, PfFNT wild type, read-out: IC50 (transport, yeast)), the IC50 was 200 ± 20 nM. The activity at 0.05 µM in data set [3] (50 nM compound, % of untreated control) was 7%. Moreover, in data set [3] (100 nM compound, % of untreated control), the activity at 0.1 µM turned out to be 4%. In addition, in data set [3] (200 nM compound, % of untreated control), the activity at 0.2 µM is 2%. Also, in data set [3] (50 nM compound, 100 minus % growth, read-out: inhibitory activity at 50 nM (in vitro, 3D7)), the inhibition at 0.05 µM is 93%. In data set [3] (cultures in erythrocytes), the 50% effective concentration (EC50) is 14.8 nM. Also, the chromatographic logD in data set [4] turned out to be 3.18.

Compound `CC(=O)Nc1ccc(C(=O)/C=C(\O)C(F)(F)C(F)(F)F)cn1` [8a, N-[5-(4,4,5,5,5-Pentafluoro-3-hydroxypent-2-enoyl)pyridin-2-yl]acetamide] gave a Ki on PfFNT [1] of 35 ± 8 nM. Also, it took 210 ± 10 nM to reach half-maximal inhibition at PfFNT [2] (IC50). For the same compound, in data set [3], the activity at 0.05 µM was determined as 50%, the activity at 0.1 µM worked out at 23%, the activity at 0.2 µM is 8% and the half-maximal effective concentration (EC50) was found to be 49.8 nM. In addition, the chromatographic logD in data set [4] came out at 1.7.

In general, Ki refers to a dissociation constant, usually derived from enzyme kinetics or from competition with a known ligand. High values mean a looser hold on the target, low ones a stronger hold on the target. Usually IC50 stands for the concentration that inhibits the measured activity by half. In general, EC50 refers to the concentration that produces a half-maximal response. As a reminder, the chromatographic logD is lipophilicity estimated from chromatographic retention.

The record behind these values is article PMC11513924, “Addressing the Intracellular Vestibule of the Plasmodial Lactate Transporter PfFNT by p-Substituted Inhibitors Amplifies In Vitro Activity” (Journal of Medicinal Chemistry, 2024).
